The term inhibition in vivo denotes the share of the control response that was lost under treatment. As usually defined, the IC50 is the point on the concentration scale where inhibition reaches its midpoint. A higher IC50 goes with weaker potency in that assay. By Kd is commonly meant the constant that tells how readily two partners part at equilibrium. A high value points to weaker binding. By inhibition is commonly meant the share of the control response that was lost under treatment. A low value points to a weak effect. A word on the Inhibition: it is the drop in the measured response relative to a control, in per cent.

Series [1] concerns Mus musculus. Briefly: Toxicity in human MX1 cells xenografted athymic nude Ncr nu/nu mouse assessed as body weight at 10 ug/day, sc after 24 days relative to control. It counts as organism-based. The following applies: in vivo, 576 h. In general terms: In xenograft studies the graft and the host belong to different species.
Series [2] deals with MX1. Briefly: Antitumor activity against human MX1 cells xenografted athymic nude Ncr nu/nu mouse assessed as inhibition of tumor volume at 20 mg/kg, ip after 3 weeks. The format is functional. The following applies: 504 h, route intraperitoneal.
Series [3] has as its system MX1. Briefly: Antitumor activity against human MX1 cells xenografted athymic nude Ncr nu/nu mouse assessed as inhibition of tumor weight at 20 mg/kg, ip after 15 days. It counts as functional. Particulars: 360 h, route intraperitoneal.
The subject of series [4] is MX1. The experiment in a line: Antitumor activity against human MX1 cells xenografted athymic nude Ncr nu/nu mouse assessed as inhibition of tumor volume at 20 mg/kg, ip after 8 days. It counts as functional. Particulars: 192 h, route intraperitoneal.
In series [5] the test system is Mus musculus. The experiment in a line: Toxicity in human MX1 cells xenografted athymic nude Ncr nu/nu mouse assessed as body weight at 20 mg/kg, ip after 24 days relative to control. The format is organism-based. Also noted: dose 20 mg/kg, route intraperitoneal. The following applies: in vivo, 576 h.
The target of series [6] is T1, Growth hormone-releasing hormone receptor (Homo sapiens, UniProt Q02643).
T1 sequence (Q02643 whole entry): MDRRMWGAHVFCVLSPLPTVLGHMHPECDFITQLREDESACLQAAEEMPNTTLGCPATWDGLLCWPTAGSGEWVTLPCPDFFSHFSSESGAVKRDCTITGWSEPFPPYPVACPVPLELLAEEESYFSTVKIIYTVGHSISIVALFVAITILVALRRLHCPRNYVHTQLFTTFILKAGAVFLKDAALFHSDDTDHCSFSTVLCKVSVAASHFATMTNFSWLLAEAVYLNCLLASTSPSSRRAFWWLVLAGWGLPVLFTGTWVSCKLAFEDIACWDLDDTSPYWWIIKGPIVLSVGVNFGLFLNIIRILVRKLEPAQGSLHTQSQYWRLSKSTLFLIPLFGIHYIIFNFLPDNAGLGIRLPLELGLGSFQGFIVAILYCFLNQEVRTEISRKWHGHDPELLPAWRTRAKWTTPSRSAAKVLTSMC
Briefly: Displacement of [125I]JV1-42 from GHRH receptor expressed in human MX1 cells. The format is cell-based. In general terms: Loss of bound radioactivity is the signal in a displacement assay; it reports binding, not function.

Series [7] has as its target Epidermal growth factor receptor (Homo sapiens, UniProt P00533). Briefly: Displacement of radiolabeled EGF from EGF receptor expressed in human MX1 cells. It counts as cell-based.
Series [8] relates to MX1. The experiment in a line: Antitumor activity against human MX1 cells xenografted athymic nude Ncr nu/nu mouse assessed as inhibition of tumor weight at 10 ug/day, sc after 3 weeks. It counts as functional.
Series [9] deals with MX1. The experiment in a line: Antitumor activity against human MX1 cells xenografted athymic nude Ncr nu/nu mouse assessed as inhibition of tumor volume at 10 ug/day, sc after 3 weeks. The format is functional.

Chain of Epidermal growth factor receptor (P00533 whole entry): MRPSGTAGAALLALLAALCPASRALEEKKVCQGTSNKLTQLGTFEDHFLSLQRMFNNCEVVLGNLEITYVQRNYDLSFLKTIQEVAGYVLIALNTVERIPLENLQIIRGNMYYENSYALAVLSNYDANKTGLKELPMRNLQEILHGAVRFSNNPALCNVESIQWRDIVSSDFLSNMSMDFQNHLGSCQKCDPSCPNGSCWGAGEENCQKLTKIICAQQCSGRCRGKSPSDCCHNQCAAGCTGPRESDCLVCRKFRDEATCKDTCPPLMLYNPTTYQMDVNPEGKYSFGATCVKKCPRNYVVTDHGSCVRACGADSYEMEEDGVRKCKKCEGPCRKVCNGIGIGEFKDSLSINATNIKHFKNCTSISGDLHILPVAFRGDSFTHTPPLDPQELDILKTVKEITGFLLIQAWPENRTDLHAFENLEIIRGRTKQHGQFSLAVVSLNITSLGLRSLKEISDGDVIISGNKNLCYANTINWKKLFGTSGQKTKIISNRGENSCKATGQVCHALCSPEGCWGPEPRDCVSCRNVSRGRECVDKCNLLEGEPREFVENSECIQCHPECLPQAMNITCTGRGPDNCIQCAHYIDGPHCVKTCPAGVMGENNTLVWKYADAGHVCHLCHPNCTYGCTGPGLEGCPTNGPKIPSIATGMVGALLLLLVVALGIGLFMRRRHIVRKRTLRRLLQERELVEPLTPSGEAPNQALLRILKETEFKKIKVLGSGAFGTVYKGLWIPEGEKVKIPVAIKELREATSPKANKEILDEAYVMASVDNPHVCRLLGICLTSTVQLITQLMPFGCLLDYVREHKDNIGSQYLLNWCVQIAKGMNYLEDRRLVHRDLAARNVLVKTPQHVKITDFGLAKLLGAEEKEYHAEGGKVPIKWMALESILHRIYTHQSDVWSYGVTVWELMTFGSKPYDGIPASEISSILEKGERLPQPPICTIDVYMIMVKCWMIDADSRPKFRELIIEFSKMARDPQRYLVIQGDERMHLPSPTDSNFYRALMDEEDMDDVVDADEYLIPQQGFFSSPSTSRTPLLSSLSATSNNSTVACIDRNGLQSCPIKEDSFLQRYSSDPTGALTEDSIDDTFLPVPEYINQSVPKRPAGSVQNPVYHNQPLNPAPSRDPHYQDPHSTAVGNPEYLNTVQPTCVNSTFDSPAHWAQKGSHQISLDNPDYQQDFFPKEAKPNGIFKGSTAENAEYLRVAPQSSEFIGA

For the compound `CCCC[C@H](NC(=O)[C@@H](NC(=O)[C@H](CC(=O)O)NC(=O)[C@H](CCC(N)=O)NC(=O)[C@H](CC(C)C)NC(=O)[C@H](CC(C)C)NC(=O)[C@H](CCCCN)NC(=O)[C@H](Cc1cnc[nH]1)NC(=O)[C@H](C)NC(=O)[C@H](CO)NC(=O)[C@H](CC(C)C)NC(=O)[C@H](CCC(N)=O)NC(=O)[C@H](CC)NC(=O)[C@H](CC(C)C)NC(=O)[C@@H](NC(=O)[C@H](CCCCN)NC(=O)[C@H](Cc1cnc[nH]1)NC(=O)[C@H](Cc1ccc(OC)cc1)NC(=O)[C@H](CCCCNC(=N)N)NC(=O)[C@H](C)NC(=O)[C@@H](NC(=O)[C@H](Cc1ccc(Cl)cc1)NC(=O)[C@@H](NC(=O)[C@H](C)NC(=O)[C@H](CC(=O)O)NC(=O)[C@@H](CCCNC(=N)N)NC(=O)[C@H](Cc1ccc(O)cc1)NC(=O)Cc1ccccc1)[C@@H](C)CC)[C@@H](C)O)C(C)C)[C@@H](C)CC)C(=O)N[C@H](CCCNC(=N)N)C(=O)N[C@@H](CCCCNC(=N)N)C(N)=O` [listing 1 of 2 here], in series [1], the Activity is recorded as 24.6 g.
Take `CC(=O)O[C@@]12CO[C@@H]1C[C@H](O)[C@@]1(C)C(=O)[C@H](O)C3=C(C)[C@@H](OC(=O)[C@H](O)[C@@H](NC(=O)OC(C)(C)C)c4ccccc4)C[C@@](O)([C@@H](OC(=O)c4ccccc4)[C@H]21)C3(C)C.O.O.O` [DOCETAXEL]: the inhibition in vivo at 20 mg/kg in series [2] came out at 74.1%; in series [3], 58.6%; in series [4] it was 29%. In addition, the Activity in series [5] worked out at 24 g. In series [6], the half-maximal inhibitory concentration (IC50) amounted to 0.14 nM. For the same compound, the Bmax in [7] is 278 fmol/mg. Moreover, the Kd in series [7] stood at 0.82 nM.
In the case of `CC[C@H](NC(=O)[C@H](CC(C)C)NC(=O)[C@@H](NC(=O)[C@H](CCCCN)NC(=O)[C@H](Cc1cnc[nH]1)NC(=O)[C@H](Cc1ccc(C)cc1)NC(=O)[C@H](CCCCNC(=N)N)NC(=O)[C@H](C)NC(=O)[C@@H](NC(=O)[C@H](Cc1ccc(Cl)cc1)NC(=O)[C@@H](NC(=O)[C@H](C)NC(=O)[C@H](CC(=O)O)NC(=O)[C@@H](CCCNC(=N)N)NC(=O)[C@H](Cc1ccc(O)cc1)NC(=O)Cc1ccccc1)[C@@H](C)CC)[C@@H](C)O)C(C)C)C(=O)N[C@@H](CCC(N)=O)C(=O)N[C@@H](CC(C)C)C(=O)N[C@@H](CO)C(=O)N[C@@H](C)C(=O)N[C@@H](Cc1cnc[nH]1)C(=O)N[C@@H](CCCCN)C(=O)N[C@@H](CC(C)C)C(=O)N[C@@H](CC(C)C)C(=O)N[C@@H](CCC(N)=O)C(=O)N[C@@H](CC(=O)O)C(=O)N[C@H](C(=O)N[C@H](C(=O)N[C@H](CCCNC(=N)N)C(=O)N[C@@H](CCCCNC(=N)N)C(N)=O)[C@@H](C)CC)[C@@H](C)CC`, in [7], the Bmax worked out at 92.4 fmol/mg and the Kd came out at 0.94 nM. Moreover, the inhibition in series [7] (concentration not given here) was 68%.
Regarding `CCCC[C@H](NC(=O)[C@@H](NC(=O)[C@H](CC(=O)O)NC(=O)[C@H](CCC(N)=O)NC(=O)[C@H](CC(C)C)NC(=O)[C@H](CC(C)C)NC(=O)[C@H](CCCCN)NC(=O)[C@H](Cc1cnc[nH]1)NC(=O)[C@H](C)NC(=O)[C@H](CO)NC(=O)[C@H](CC(C)C)NC(=O)[C@H](CCC(N)=O)NC(=O)[C@H](CC)NC(=O)[C@H](CC(C)C)NC(=O)[C@@H](NC(=O)[C@H](CCCCN)NC(=O)[C@H](Cc1cnc[nH]1)NC(=O)[C@H](Cc1ccc(OC)cc1)NC(=O)[C@H](CCCCNC(=N)N)NC(=O)[C@H](C)NC(=O)[C@@H](NC(=O)[C@H](Cc1ccc(Cl)cc1)NC(=O)[C@@H](NC(=O)[C@H](C)NC(=O)[C@H](CC(=O)O)NC(=O)[C@@H](CCCNC(=N)N)NC(=O)[C@H](Cc1ccc(O)cc1)NC(=O)Cc1ccccc1)[C@@H](C)CC)[C@@H](C)O)C(C)C)[C@@H](C)CC)C(=O)N[C@H](CCCNC(=N)N)C(=O)N[C@@H](CCCCNC(=N)N)C(N)=O` [listing 2 of 2 here], the Inhibition in series [8] is 47.8%; in series [9], 62.9%.

(Values after ChEMBL document CHEMBL1147056, “Potentiation of mammary cancer inhibition by combination of antagonists of growth hormone-releasing hormone with docetaxel” (Proc Natl Acad Sci U S A, 2007).)
